In US20070032508A1, “Quinazoline derivatives as tyrosine kinase inhibitors” (priority 2003, published 2007):

Assays:
[1] = target: T1, erbB2 in a MCF7 derived cell line (Clone 24 cells) (Homo sapiens, UniProt P04626); assay: Test (c) Clone 24 phospho-erbB2 cell assay; assay type: cell-based; settings: Clone 24 cells (MCF7 transfected with full length erbB2), 4 hrs with compound; read-out: IC50 Test (c): Inhibition of erbB2 tyrosine kinase protein phosphorylation
T1 construct: a cell line that overexpresses full length wild type erbB2 protein; expressed in transfected cells; host or cells: MCF7 (breast carcinoma) cells, 'Clone 24'
T1 sequence (P04626 23-1255): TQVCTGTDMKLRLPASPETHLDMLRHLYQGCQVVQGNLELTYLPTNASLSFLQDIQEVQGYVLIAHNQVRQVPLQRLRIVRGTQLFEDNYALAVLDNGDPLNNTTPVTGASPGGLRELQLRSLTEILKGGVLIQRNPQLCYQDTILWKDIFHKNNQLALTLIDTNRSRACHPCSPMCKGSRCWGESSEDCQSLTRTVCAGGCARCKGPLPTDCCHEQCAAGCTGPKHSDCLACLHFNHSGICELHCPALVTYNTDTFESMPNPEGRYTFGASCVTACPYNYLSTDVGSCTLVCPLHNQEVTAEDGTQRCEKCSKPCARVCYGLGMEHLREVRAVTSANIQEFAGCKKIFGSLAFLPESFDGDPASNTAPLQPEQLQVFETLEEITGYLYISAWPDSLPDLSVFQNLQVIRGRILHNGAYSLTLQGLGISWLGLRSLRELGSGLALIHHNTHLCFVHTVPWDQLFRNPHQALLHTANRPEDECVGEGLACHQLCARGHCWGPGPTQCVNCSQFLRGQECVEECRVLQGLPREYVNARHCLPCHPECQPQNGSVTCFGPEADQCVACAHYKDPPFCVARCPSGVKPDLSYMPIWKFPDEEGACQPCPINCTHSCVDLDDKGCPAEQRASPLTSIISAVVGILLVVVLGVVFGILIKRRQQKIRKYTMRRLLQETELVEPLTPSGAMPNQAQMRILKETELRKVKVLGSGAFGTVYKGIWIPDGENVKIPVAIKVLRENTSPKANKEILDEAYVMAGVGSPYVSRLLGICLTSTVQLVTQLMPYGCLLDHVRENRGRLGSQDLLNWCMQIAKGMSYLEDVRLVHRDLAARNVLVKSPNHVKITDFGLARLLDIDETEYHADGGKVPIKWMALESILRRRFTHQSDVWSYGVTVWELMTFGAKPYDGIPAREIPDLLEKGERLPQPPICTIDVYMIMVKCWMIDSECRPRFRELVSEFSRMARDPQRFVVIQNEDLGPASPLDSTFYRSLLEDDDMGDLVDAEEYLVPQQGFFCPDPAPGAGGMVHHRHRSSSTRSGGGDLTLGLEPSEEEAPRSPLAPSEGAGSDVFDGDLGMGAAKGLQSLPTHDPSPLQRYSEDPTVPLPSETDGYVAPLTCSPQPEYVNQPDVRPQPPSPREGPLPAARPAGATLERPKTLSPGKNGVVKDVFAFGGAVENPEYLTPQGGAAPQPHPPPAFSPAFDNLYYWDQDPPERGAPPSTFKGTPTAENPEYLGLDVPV
Method: c) Clone 24 phospho-erbB2 Cell Assay
This immunofluorescence end point assay measures the ability of a test compound to inhibit the phosphorylation of erbB2 in a MCF7 (breast carcinoma) derived cell line which was generated by transfecting MCF7 cells with the full length erbB2 gene using standard methods to give a cell line that overexpresses full length wild type erbB2 protein (hereinafter ‘Clone 24’ cells).
Clone 24 cells were cultured in Growth Medium (phenol red free Dulbecco's modified Eagle's medium (DMEM) containing 10% foetal bovine serum, 2 mM glutamine and 1.2 mg/ml G418) in a 7.5% CO2 air incubator at 37° C. Cells were harvested from T75 stock flasks by washing once in PBS phosphate buffered saline, pH7.4, Gibco No. 10010-015) and harvested using 2 mls of Trypsin (1.25 mg/ml)/ethylaminediaminetetraacetic acid (EDTA) (0.8 mg/ml) solution. The cells were resuspended in Growth Medium. Cell density was measured using a haemocytometer and viability was calculated using Trypan Blue solution before being further diluted in Growth Medium and seeded at a density of 1×10^4 cells per well (in 100 ul) into clear bottomed 96 well plates (Packard, No. 6005182).
3 days later, Growth Medium was removed from the wells and replaced with 100 ul Assay Medium (phenol red free DMEM, 2 mM glutamine, 1.2 mg/ml G418) either with or without erbB inhibitor compound. Plates were returned to the incubator for 4 hrs and then 20 μl of 20% formaldehyde solution in PBS was added to each well and the plate was left at room temperature for 30 minutes. This fixative solution was removed with a multichannel pipette, 100 μl of PBS was added to each well and then removed with a multichannel pipette and then 50 μl PBS was added to each well. Plates were then sealed and stored for up to 2 weeks at 4° C.
Immunostaining was performed at room temperature. […]
The Fluorescence signal is each well was measured using an Acumen Explorer Instrument (Acumen Bioscience Ltd.), a plate reader that can be used to rapidly quantitate features of images generated by laser-scanning. […]

[2] = target: T2, EGFR tyrosine kinase (Homo sapiens, UniProt P00533); assay: Test (a) protein tyrosine kinase phosphorylation assay, EGFR; assay type: biochemical; settings: recombinant intracellular fragment, ATP at Km; read-out: IC50 Test (a): Inhibition of EGFR tyrosine kinase protein phosphorylation
T2 construct: Recombinant intracellular fragments of EGFR, erbB2 and erbB4; made in house; host or cells: baculovirus/Sf21 insect cells (cleared lysate used)
T2 sequence (P00533 669-1210 limits assumed): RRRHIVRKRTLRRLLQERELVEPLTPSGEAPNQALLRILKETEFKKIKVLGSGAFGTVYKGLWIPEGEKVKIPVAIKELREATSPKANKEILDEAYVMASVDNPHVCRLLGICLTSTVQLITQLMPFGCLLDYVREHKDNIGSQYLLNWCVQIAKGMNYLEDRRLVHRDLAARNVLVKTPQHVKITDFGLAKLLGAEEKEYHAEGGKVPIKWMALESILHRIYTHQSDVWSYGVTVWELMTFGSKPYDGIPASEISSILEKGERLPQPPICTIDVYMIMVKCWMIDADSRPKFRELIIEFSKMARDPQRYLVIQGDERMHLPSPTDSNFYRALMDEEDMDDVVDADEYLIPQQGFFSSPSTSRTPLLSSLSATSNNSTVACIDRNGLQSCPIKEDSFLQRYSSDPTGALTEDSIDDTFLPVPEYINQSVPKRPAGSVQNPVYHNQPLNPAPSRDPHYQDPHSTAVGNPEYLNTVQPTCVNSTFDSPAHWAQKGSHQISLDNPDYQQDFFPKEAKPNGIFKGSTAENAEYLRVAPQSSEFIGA
Method: (§1) A) Protein Tyrosine Kinase Phosphorylation Assays
This test measures the ability of a test compound to inhibit the phosphorylation of a tyrosine containing polypeptide substrate by EGFR tyrosine kinase enzyme.
(§2) Recombinant intracellular fragments of EGFR, erbB2 and erbB4 (accession numbers X00588, X03363 and L07868 respectively) were cloned and expressed in the baculovirus/Sf21 system. Lysates were prepared from these cells by treatment with ice-cold lysis buffer (20 mM N-2-hydroxyethylpiperizine-N′-2-ethanesulfonic acid (HEPES) pH7.5, 150 mM NaCl, 10% glycerol, 1% Triton X-100, 1.5 mM MgCl2, 1 mM ethylene glycol-bis(β-aminoethyl ether) N′,N′,N′,N′-tetraacetic acid (EGTA), plus protease inhibitors and then cleared by centrifugation.
(§3) Constitutive kinase activity of these recombinant proteins was determined by their ability to phosphorylate a synthetic peptide (made up of a random co-polymer of Glutamic Acid, Alanine and Tyrosine in the ratio of 6:3:1). Specifically, Maxisorb™ 96-well immunoplates were coated with synthetic peptide (0.2 μg of peptide in a 200 μl phosphate buffered saline (PBS) solution and incubated at 4° C. overnight). Plates were washed in 50 mM HEPES pH 7.4 at room temperature to remove any excess unbound synthetic peptide. […]
(§4) The immobilised phospho-peptide product of the reaction was detected by immunological methods. […] After further washing, HRP activity in each well of the plate was measured […] using 22′-Azino-di-[3-ethylbenzthiazoline sulfonate (6)] diammonium salt crystals (ABTS™ from Roche) as a substrate.
(§5) Quantification of colour development and thus enzyme activity was achieved by the measurement of absorbance at 405 nm on a Molecular Devices ThermoMax microplate reader. Kinase inhibition for a given compound was expressed as an IC50 value. […] The range of phosphorylation was calculated from the positive (vehicle plus ATP) and negative (vehicle minus ATP) control values.

[3] = target: T3, erbB2 tyrosine kinase (Homo sapiens, UniProt P04626); assay: Test (a) protein tyrosine kinase phosphorylation assay, erbB2; assay type: biochemical; settings: recombinant intracellular fragment, ATP at Km; read-out: IC50 Test (a): Inhibition of erbB2 tyrosine kinase protein phosphorylation
T3 construct: Recombinant intracellular fragments of EGFR, erbB2 and erbB4; made in house; host or cells: baculovirus/Sf21 insect cells (cleared lysate used)
T3 sequence (P04626 676-1255 limits assumed): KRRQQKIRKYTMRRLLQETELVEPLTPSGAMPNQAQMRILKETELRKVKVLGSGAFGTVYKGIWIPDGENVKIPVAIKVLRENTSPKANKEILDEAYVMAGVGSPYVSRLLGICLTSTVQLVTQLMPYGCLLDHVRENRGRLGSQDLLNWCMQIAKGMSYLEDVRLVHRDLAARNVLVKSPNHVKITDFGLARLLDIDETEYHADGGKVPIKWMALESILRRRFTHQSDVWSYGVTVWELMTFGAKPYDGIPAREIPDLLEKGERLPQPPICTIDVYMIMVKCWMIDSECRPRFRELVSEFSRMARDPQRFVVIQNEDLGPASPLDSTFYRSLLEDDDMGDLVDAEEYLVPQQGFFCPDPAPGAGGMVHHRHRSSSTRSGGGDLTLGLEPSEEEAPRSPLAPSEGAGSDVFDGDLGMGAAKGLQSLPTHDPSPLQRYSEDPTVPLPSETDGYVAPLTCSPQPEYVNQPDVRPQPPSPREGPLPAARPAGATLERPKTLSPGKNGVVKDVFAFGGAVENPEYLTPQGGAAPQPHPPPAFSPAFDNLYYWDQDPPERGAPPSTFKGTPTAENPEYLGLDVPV
Method: as §1, §2, §3, §4, §5

SMILES	IC50 [1] [nM]	IC50 [2] [nM]	IC50 [3] [nM]
CS(=O)(=O)N1CCC(COc2ccc3ncnc(Nc4ccc(OCc5ccccn5)c(Cl)c4)c3c2)C1 (stereo not drawn) [Example 14, N-[3-Chloro-4-(pyridin-2-ylmethoxy)phenyl]-6-{[1-(methylsulfonyl)pyrrolidin-3-yl]methoxy}quinazolin-4-amine]	4	213	2
CN(C)CC(=O)N1CCC(Oc2ccc3ncnc(Nc4ccc(OCc5cnccn5)c(Cl)c4)c3c2)CC1 [Example 9, N-[3-chloro-4-(pyrazin-2-ylmethoxy)phenyl]-6-({1-[(dimethylamino)acetyl]piperidin-4-yl}oxy)quinazolin-4-amine]	150	21	7
CN(C)CC(=O)N1CCC(Oc2ccc3ncnc(Nc4ccc(OCc5ccccn5)c(Cl)c4)c3c2)CC1 [Example 8]	210	39	2
